# Test results taken from ChEMBL document CHEMBL1201862, “PubChem BioAssay data set” (2004).
# Activity calls are given as the source filed them.
# Key:
# [1] = microbe, parasite or virus in culture; assay type: functional; settings: Mycobacterium tuberculosis
# [2] = target: Disintegrin and metalloproteinase domain-containing protein 17 (Homo sapiens, UniProt P78536); experiment: inhibition of ADAM17 substrate cleavage – biochemical, quenched FRET substrate, counter-screen for ADAM10 exosite inhibitor project, dose response (AID 743253)
# [3] = Luminescence Cell-Based Dose Retest to Confirm Inhibitors of Cancer Stem Cells. [Related pubchem assays (depositor defined):AID2717, AID2721]; assay type: functional; settings: Homo sapiens
# [4] = test system: Streptococcus sp. 'group A'; experiment: Streptococcus pyogenes SK(-)GAS viability under kanamycin – luminescence, BacTiterGlo, confirmation, counter-screen for streptokinase expression inhibitor project, dose response (AID 1900); assay type: functional, organism-based
# Streptokinase A = target: T1, Streptokinase A (Streptococcus pyogenes serotype M1, UniProt P10520); experiment: viability-normalized secreted streptokinase activity reduction – plasminogen activation absorbance, OD405, dose response (AID 1914); assay type: functional, Streptococcus pyogenes M1 GAS;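 note: secreted streptokinase activity via plasminogen activation per viability signal from cell pellet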
# T1 sequence (P10520 whole entry): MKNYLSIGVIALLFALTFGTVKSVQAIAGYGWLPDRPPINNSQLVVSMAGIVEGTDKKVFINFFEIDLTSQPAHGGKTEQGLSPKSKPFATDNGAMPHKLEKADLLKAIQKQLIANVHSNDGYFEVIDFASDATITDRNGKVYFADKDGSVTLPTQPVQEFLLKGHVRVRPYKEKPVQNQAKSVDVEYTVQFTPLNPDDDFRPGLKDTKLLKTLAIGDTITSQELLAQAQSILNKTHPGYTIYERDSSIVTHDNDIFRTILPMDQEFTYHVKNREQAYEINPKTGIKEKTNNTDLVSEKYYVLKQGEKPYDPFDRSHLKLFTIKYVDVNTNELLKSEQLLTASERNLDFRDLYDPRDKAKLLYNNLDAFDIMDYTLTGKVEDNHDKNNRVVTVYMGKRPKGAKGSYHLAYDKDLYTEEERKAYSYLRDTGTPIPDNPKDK
# Streptococcus = experiment: GAS UMAA2166 growth inhibition – luminescence, BacTiterGlo, counter-screen for streptokinase expression inhibitor project, dose response (AID 1915); assay type: functional, organism-based;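 note: potency for reduction of bacterial viability or growth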
# [5] = cytotoxicity in MITF-independent A375 cells – cell-based, CellTiter-Glo luminescence, dry powder, set 4, counter-screen for MITF inhibitor project, dose response (AID 624364); assay type: functional; settings: A-375;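 note: A375 melanoma cells are MITF independent so this is a counter screen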
# [6] = viability loss in MITF-independent A375 cells – cell-based, CellTiter-Glo luminescence, dry powder, set 2, counter-screen for MITF inhibitor project, dose response (AID 624489); assay type: functional; settings: A-375;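 note: actives are compounds lowering A375 viability meaning general cytotoxicity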
# fMet-Leu-Phe receptor = target: T2, fMet-Leu-Phe receptor (Homo sapiens, UniProt P21462); experiment: formyl peptide receptor binders – dose response (AID 519); assay type: functional
# T2 sequence (P21462 whole entry): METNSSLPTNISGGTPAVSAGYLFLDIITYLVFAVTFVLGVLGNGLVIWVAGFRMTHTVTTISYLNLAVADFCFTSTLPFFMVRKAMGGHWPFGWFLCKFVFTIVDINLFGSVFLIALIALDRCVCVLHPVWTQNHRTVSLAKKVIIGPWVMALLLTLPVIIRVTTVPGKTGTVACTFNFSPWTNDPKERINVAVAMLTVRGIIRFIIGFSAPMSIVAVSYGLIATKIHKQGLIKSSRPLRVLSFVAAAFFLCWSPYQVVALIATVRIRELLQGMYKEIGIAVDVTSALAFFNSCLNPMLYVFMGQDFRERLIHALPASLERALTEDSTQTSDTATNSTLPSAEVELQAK
# Paired box protein Pax-8 = Paired box protein Pax-8 (Homo sapiens, UniProt Q06710); experiment: PAX8 transcriptional activity inhibition in RMG-I – RMG-I cells, luciferase, cherry-pick, dose response (AID 687027); assay type: functional, cell-based;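 note: luciferase reporter driven by Pax8 target thyroperoxidase promoter measured by SteadyGlo luminescence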
# [7] = OVCAR8 cell viability loss – plate reader, dry powder samples, PAX8 project, dose response (AID 743197); assay type: functional, cell-based; settings: OVCAR-8
# [8] = OVCAR-3 cell viability loss – plate reader, dry powder samples, PAX8 inhibitor project, dose response (AID 743044); assay type: functional, cell-based
# [9] = A2780 cell killing – plate reader, dry powder samples, cytotoxicity control, dose response (AID 743046); assay type: functional, cell-based
# Cytochrome P450 1A2 = target: T3, Cytochrome P450 1A2 (Homo sapiens, UniProt P05177);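 note: PubChem cytochrome P450 panel assay, CYP1A2 panel member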
# T3 sequence (P05177 whole entry): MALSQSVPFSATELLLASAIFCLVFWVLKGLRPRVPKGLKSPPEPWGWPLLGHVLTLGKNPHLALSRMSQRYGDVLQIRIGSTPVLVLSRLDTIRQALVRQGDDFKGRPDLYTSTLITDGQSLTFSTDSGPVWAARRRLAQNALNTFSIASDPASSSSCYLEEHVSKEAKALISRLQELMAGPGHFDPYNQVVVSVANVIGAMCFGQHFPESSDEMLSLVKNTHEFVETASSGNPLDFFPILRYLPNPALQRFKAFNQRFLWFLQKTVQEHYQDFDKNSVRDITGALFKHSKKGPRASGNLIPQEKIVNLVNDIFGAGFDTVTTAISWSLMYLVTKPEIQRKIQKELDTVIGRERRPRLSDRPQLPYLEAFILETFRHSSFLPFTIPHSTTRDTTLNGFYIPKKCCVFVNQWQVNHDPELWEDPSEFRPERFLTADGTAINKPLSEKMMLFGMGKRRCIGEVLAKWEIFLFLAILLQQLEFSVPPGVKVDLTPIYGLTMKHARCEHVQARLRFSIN
# [10] = target: Mitogen-activated protein kinase 10 (Homo sapiens, UniProt P53779); experiment: Dose response biochemical screening assay for inhibitors of c-Jun N-Terminal Kinase 3 (JNK3). [Related pubchem assays: 746 ]
# Cytochrome P450 2D6 = Cytochrome P450 2D6 (Homo sapiens, UniProt P10635);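 note: CYP2D6 member of a cytochrome P450 panel assay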
# [11] = target: Peroxisome proliferator-activated receptor gamma/Nuclear receptor coactivator 1 (Homo sapiens, UniProt P37231); experiment: (§1) TR-FRET dose response biochemical High Throughput Screening assay for agonists of the steroid receptor coactivator 1 (SRC-1) recruitment by the peroxisome proliferator-activated receptor gamma (PPAR gamma): non-selective agonists. [Related pubchem assays (depositor defined):AID1300, AID1808, AID504735, AID631]; assay type: protein assay
# [12] = target: Peroxisome proliferator-activated receptor gamma/Nuclear receptor coactivator 3 (Homo sapiens, UniProt P37231); experiment: as §1, with “3 (SRC-3)” for “1 (SRC-1)”, “assays: 1301 (Confirmation screen.), 1048 (Primary screen.)]” for “assays (depositor defined):AID1300, AID1808, AID504735, AID631]”; assay type: functional
# [13] = target: Peroxisome proliferator-activated receptor gamma/Nuclear receptor coactivator 2 (Homo sapiens, UniProt P37231); experiment: TR-FRET dose response biochemical High Throughput Screening assay for agonists of the steroid receptor coactivator 2 (SRC-2) recruitment by the peroxisome proliferator-activated receptor gamma (PPAR gamma): non-selective agonists. [Related pubchem assays: 1297, 1032 ]; assay type: functional
# Chain of Paired box protein Pax-8 (Q06710 whole entry): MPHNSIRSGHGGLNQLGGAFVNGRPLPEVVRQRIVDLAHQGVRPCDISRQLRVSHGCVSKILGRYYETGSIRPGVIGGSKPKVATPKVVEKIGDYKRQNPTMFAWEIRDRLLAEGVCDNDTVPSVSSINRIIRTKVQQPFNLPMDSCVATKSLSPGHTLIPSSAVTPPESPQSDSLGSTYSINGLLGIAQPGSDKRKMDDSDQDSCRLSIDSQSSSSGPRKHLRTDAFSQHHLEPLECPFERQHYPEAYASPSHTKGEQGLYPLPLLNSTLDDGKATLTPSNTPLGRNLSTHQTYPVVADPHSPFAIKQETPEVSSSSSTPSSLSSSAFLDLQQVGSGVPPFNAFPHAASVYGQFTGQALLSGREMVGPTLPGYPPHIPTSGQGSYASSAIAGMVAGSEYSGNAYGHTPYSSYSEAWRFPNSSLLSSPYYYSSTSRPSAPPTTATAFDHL
# Chain of Cytochrome P450 2D6 (P10635 whole entry): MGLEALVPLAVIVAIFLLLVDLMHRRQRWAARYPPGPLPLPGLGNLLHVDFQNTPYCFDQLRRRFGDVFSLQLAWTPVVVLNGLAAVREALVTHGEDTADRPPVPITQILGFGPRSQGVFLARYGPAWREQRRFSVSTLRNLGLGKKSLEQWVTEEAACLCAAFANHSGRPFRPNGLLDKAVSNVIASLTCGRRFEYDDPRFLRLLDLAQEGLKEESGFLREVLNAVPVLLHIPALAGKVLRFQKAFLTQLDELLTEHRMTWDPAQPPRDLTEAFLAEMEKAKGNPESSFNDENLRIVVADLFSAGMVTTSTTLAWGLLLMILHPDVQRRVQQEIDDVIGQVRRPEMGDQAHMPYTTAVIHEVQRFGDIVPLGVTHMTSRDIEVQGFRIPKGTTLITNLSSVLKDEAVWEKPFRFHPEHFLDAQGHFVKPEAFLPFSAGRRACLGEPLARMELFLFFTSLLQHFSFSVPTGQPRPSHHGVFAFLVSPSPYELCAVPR
# Chain of Peroxisome proliferator-activated receptor gamma/Nuclear receptor coactivator 3 (P37231 whole entry): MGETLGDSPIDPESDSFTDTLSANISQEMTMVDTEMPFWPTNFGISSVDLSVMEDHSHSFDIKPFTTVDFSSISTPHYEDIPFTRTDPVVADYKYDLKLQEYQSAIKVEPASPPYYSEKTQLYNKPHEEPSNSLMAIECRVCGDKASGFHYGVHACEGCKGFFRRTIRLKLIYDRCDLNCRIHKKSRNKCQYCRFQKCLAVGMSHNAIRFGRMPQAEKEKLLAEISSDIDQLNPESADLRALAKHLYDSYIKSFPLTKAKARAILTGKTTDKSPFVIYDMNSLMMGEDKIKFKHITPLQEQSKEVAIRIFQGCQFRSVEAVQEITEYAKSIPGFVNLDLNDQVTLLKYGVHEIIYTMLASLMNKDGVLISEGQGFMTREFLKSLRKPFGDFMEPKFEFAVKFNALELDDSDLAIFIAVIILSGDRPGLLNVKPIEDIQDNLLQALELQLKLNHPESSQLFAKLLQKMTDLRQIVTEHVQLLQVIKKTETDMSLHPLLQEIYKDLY
# Chain of Peroxisome proliferator-activated receptor gamma/Nuclear receptor coactivator 3 (Q9Y6Q9 whole entry, further chain): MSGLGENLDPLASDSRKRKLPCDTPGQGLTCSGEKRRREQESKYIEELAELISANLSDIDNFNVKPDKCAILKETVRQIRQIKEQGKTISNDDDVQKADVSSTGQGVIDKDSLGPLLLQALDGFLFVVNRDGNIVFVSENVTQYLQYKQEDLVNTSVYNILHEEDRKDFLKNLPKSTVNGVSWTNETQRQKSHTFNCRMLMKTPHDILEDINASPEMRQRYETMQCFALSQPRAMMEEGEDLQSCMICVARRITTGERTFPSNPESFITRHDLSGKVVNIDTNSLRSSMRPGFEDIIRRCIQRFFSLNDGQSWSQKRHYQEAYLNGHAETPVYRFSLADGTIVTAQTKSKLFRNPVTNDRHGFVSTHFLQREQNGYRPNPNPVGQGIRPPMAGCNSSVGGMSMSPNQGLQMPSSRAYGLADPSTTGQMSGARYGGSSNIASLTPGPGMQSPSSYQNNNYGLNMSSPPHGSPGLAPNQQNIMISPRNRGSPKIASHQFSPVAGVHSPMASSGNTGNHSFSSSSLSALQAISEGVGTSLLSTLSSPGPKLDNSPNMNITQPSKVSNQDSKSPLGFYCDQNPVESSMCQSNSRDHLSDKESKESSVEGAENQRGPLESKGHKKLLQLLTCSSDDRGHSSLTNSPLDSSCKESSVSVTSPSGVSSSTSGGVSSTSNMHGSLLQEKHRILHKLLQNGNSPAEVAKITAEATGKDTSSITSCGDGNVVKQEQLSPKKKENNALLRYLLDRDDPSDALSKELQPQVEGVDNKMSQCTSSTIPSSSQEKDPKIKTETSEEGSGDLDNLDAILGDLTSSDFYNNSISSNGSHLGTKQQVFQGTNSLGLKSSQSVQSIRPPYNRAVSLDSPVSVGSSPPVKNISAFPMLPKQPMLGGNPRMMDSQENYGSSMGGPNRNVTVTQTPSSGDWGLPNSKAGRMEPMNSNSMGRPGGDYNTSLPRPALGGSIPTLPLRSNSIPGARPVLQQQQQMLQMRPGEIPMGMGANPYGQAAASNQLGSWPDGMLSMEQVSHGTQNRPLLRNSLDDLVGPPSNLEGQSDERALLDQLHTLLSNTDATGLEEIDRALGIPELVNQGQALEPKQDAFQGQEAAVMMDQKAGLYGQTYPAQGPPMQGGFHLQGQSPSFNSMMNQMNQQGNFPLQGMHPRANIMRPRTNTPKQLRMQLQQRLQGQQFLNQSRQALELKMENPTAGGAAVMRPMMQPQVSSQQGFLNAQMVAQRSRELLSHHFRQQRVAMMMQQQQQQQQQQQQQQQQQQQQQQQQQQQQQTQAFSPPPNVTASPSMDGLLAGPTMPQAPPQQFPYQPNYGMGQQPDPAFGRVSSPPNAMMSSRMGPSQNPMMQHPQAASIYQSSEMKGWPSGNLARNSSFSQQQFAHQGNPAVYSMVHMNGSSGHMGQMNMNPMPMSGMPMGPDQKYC
# Chain of Peroxisome proliferator-activated receptor gamma/Nuclear receptor coactivator 1 (P37231 whole entry): as the sequence (P37231 whole entry) above
# Chain of Peroxisome proliferator-activated receptor gamma/Nuclear receptor coactivator 1 (Q15788 whole entry, further chain): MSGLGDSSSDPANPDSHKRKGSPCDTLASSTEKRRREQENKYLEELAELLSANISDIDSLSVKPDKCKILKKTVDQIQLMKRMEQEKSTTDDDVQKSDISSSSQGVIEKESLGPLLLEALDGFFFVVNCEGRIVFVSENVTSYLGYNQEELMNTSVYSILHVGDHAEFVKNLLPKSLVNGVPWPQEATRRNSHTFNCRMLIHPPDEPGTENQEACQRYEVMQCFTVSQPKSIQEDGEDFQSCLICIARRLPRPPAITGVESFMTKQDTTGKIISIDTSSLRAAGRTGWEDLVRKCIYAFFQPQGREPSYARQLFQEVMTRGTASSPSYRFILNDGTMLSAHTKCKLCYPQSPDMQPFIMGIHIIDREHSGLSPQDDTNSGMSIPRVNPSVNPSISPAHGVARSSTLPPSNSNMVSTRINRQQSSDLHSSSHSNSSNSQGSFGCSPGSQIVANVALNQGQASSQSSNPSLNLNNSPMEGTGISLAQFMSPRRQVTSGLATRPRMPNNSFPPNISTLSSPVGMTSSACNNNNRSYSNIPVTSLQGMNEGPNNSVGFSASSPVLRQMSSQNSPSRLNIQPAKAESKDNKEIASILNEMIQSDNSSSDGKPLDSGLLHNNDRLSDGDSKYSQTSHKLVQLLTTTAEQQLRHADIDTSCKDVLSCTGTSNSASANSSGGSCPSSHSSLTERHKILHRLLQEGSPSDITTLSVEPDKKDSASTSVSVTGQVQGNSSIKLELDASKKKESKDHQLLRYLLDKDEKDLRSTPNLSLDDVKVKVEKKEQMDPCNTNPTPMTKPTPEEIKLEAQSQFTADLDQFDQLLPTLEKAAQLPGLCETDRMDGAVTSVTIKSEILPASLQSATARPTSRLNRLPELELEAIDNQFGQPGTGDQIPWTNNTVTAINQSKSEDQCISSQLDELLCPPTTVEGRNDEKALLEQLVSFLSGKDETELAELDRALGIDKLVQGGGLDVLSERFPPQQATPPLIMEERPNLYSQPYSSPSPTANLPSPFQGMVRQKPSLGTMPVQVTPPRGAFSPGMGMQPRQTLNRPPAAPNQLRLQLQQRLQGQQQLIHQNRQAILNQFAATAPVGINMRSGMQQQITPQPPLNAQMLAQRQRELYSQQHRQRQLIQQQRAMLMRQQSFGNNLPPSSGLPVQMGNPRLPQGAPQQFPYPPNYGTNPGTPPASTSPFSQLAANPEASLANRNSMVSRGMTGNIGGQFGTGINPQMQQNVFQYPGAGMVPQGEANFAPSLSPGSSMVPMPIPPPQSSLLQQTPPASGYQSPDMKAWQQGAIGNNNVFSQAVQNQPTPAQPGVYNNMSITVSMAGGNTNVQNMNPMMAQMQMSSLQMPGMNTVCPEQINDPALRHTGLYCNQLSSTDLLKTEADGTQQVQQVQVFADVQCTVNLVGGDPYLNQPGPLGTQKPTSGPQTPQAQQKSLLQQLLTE
smiles,measurement,setting,value
O=C(Nc1ccc(OCC(F)(F)C(F)F)c(C(F)(F)F)c1)c1ccc(Cl)cc1,CC50,[1],13.4 µM (active)
same,IC50,[2],> 69.5 µM (inactive)
same,AC50,[3],3.52 µM (active)
same,EC50,[4],5.77 µM (active)
same,EC50,Streptokinase A,1.77 µM (active)
same,EC50,Streptococcus,7.49 µM (active)
NC1=C(c2ccc(OC(F)(F)F)cc2)C(=O)c2ccccc2C1=O,AC50,[5],> 70 µM (inactive)
same,AC50,[6],> 70 µM (inactive)
CC(=O)N(C)C1=C(N2CCCCC2)C(=O)c2ccccc2C1=O,AC50,[5],27.1 µM (active)
same,AC50,[6],14.8 µM (active)
Cc1nn2c(O)c3c(nc2c1-c1ccccc1)CCC3,Ki,fMet-Leu-Phe receptor,20.4 µM (inactive)
C[C@@H]1CCCCO[C@H](CN(C)C(=O)Cc2ccccc2)[C@@H](C)CN([C@@H](C)CO)C(=O)c2cc(NC(=O)Nc3ccc(C(F)(F)F)cc3)ccc2O1,AC50,Paired box protein Pax-8,2.85 µM (active)
same,AC50,[7],58.8 µM (active)
same,AC50,[8],54.5 µM (active)
same,AC50,[9],54.7 µM (active)
Cc1ccc(C(=O)C2=C(O)C(=O)N(CCCn3ccnc3)C2c2ccc(OC(C)C)cc2)o1 (stereo not drawn),AC50,Cytochrome P450 1A2,39.8 µM (inconclusive)
same,IC50,[10],37.4 µM (not active)
same,AC50,Cytochrome P450 2D6,12.6 µM (inconclusive)
same,Ki,fMet-Leu-Phe receptor,> 66.7 µM (inactive)
COc1ccc(C(=O)C2=C(O)C(=O)N(c3nc(C)c(C)s3)C2c2ccco2)cc1 (stereo not drawn),EC50,[11],> 79.4 µM (inactive)
same,EC50,[12],> 79.4 µM (not active)
same,Ki,fMet-Leu-Phe receptor,> 66.7 µM (inactive)
same,EC50,[13],37.9 µM (not active)
